Organism: Rattus norvegicus
Assay: DrugMatrix - Regimen: Daily Repeat
Assay type: toxicity, organism-based, Sprague-Dawley
Parameters: regimen Daily Repeat, gender Male, age 6-8 weeks
Settings: in vivo, po, route oral GAVAGE, vehicle 100 % WATER; for ABSOLUTE BASOPHIL / ABSOLUTE EOSINOPHIL / ABSOLUTE LYMPHOCYTE / ABSOLUTE MONOCYTE / ABSOLUTE SEGMENTED NEUTROPHIL / BASOPHIL / EOSINOPHIL / ERYTHROCYTE COUNT / HEMATOCRIT / HEMOGLOBIN / LEUKOCYTE COUNT / LYMPHOCYTE / MEAN CORPUSCULAR HEMOGLOBIN / MEAN CORPUSCULAR HEMOGLOBIN CONCENTRATION / NEUTROPHIL / NUCLEATED RED BLOOD CELLS / PLATELET COUNT: tissue Blood; for ALANINE AMINOTRANSFERASE / ALBUMIN / ALKALINE PHOSPHATASE / ASPARTATE AMINOTRANSFERASE / BLOOD UREA NITROGEN / CARBON DIOXIDE / CHLORIDE / CHOLESTEROL / CREATINE PHOSPHOKINASE / CREATININE / GLUCOSE / LACTATE DEHYDROGENASE / LIPASE / PHOSPHORUS / POTASSIUM / SODIUM / TOTAL BILIRUBIN / TOTAL PROTEIN / URIC ACID: tissue Plasma
[1] = 94 mg/kg, 120 h, dose level High, time 5 day
[2] = […], 72 h, dose 2.3 mg/Kg, dose level Low, time 3 day
[3] = […], 120 h, dose 2.3 mg/Kg, dose level Low, time 5 day

## CN1[C@@H]2CC[C@H]1C[C@@H](OC(=O)C(CO)c1ccccc1)C2 (stereo partly drawn) [ATROPINE]
[1]
  ABSOLUTE BASOPHIL: 0 CELLS/uL
  ABSOLUTE EOSINOPHIL: 26.33 CELLS/uL
  ABSOLUTE LYMPHOCYTE: 8136 CELLS/uL
  ABSOLUTE MONOCYTE: 82.33 CELLS/uL
  ABSOLUTE SEGMENTED NEUTROPHIL: 555.33 CELLS/uL
  BASOPHIL: 0%
  EOSINOPHIL: 0.33%
  ERYTHROCYTE COUNT: 5.33 x10E6/uL
  HEMATOCRIT: 35.2%
  HEMOGLOBIN: 13.4 G/DL
  LEUKOCYTE COUNT: 8.8 x10E3/uL
  LYMPHOCYTE: 92.33%
  MEAN CORPUSCULAR HEMOGLOBIN: 25.13 pg
  MEAN CORPUSCULAR HEMOGLOBIN CONCENTRATION: 38.07 G/DL
  NEUTROPHIL: 6.33%
  NUCLEATED RED BLOOD CELLS: 0.33 /100WBC
  PLATELET COUNT: 1133.67 x10E3/uL
  ALANINE AMINOTRANSFERASE: 73.67 u/L
  ALBUMIN: 4.13 G/DL
  ALKALINE PHOSPHATASE: 335 u/L
  ASPARTATE AMINOTRANSFERASE: 106.67 u/L
  BLOOD UREA NITROGEN: 13 mg/dL
  CARBON DIOXIDE: 32 mmol/L
  CHLORIDE: 99.67 MEQ/L
  CHOLESTEROL: 52.33 mg/dL
  CREATINE PHOSPHOKINASE: 367.67 u/L
  CREATININE: 0.1 mg/dL
  GLUCOSE: 155 mg/dL
  LACTATE DEHYDROGENASE: 214.33 u/L
  LIPASE: 11 u/L
  PHOSPHORUS: 9.67 mg/dL
  POTASSIUM: 5.56 MEQ/L
  SODIUM: 143.2 MEQ/L
  TOTAL BILIRUBIN: 0.17 mg/dL
  TOTAL PROTEIN: 6.03 G/DL
  URIC ACID: 0.37 mg/dL
[2]
  ABSOLUTE BASOPHIL: 0 CELLS/uL
  ABSOLUTE EOSINOPHIL: 0 CELLS/uL
  ABSOLUTE LYMPHOCYTE: 12169.33 CELLS/uL
  ABSOLUTE MONOCYTE: 203.67 CELLS/uL
  ABSOLUTE SEGMENTED NEUTROPHIL: 1660.33 CELLS/uL
  BASOPHIL: 0%
  EOSINOPHIL: 0%
  ERYTHROCYTE COUNT: 5.43 x10E6/uL
  HEMATOCRIT: 34.63%
  HEMOGLOBIN: 13.57 G/DL
  LEUKOCYTE COUNT: 14.03 x10E3/uL
  LYMPHOCYTE: 88%
  MEAN CORPUSCULAR HEMOGLOBIN: 25 pg
  MEAN CORPUSCULAR HEMOGLOBIN CONCENTRATION: 39.17 G/DL
  NEUTROPHIL: 10.67%
  NUCLEATED RED BLOOD CELLS: 0 /100WBC
  PLATELET COUNT: 1077.33 x10E3/uL
  ALANINE AMINOTRANSFERASE: 49 u/L
  ALBUMIN: 3.93 G/DL
  ALKALINE PHOSPHATASE: 305.33 u/L
  ASPARTATE AMINOTRANSFERASE: 82.67 u/L
  BLOOD UREA NITROGEN: 10.67 mg/dL
  CARBON DIOXIDE: 28.67 mmol/L
  CHLORIDE: 99.33 MEQ/L
  CHOLESTEROL: 68.67 mg/dL
  CREATINE PHOSPHOKINASE: 256.67 u/L
  CREATININE: 0.1 mg/dL
  GLUCOSE: 142.67 mg/dL
  LACTATE DEHYDROGENASE: 161 u/L
  LIPASE: 9.33 u/L
  PHOSPHORUS: 10.27 mg/dL
  POTASSIUM: 6.48 MEQ/L
  SODIUM: 141.6 MEQ/L
  TOTAL BILIRUBIN: 0.27 mg/dL
  TOTAL PROTEIN: 5.63 G/DL
  URIC ACID: 0.97 mg/dL
[3]
  ABSOLUTE BASOPHIL: 0 CELLS/uL
  ABSOLUTE EOSINOPHIL: 0 CELLS/uL
  ABSOLUTE LYMPHOCYTE: 8930.67 CELLS/uL
  ABSOLUTE MONOCYTE: 135.33 CELLS/uL
  ABSOLUTE SEGMENTED NEUTROPHIL: 600.67 CELLS/uL
  BASOPHIL: 0%
  EOSINOPHIL: 0%
  ERYTHROCYTE COUNT: 5.39 x10E6/uL
  HEMATOCRIT: 35.13%
  HEMOGLOBIN: 13.5 G/DL
  LEUKOCYTE COUNT: 9.67 x10E3/uL
  LYMPHOCYTE: 93%
  MEAN CORPUSCULAR HEMOGLOBIN: 25.07 pg
  MEAN CORPUSCULAR HEMOGLOBIN CONCENTRATION: 38.43 G/DL
  NEUTROPHIL: 6%
  NUCLEATED RED BLOOD CELLS: 0 /100WBC
  PLATELET COUNT: 1298.67 x10E3/uL
  ALANINE AMINOTRANSFERASE: 55.33 u/L
  ALBUMIN: 4.07 G/DL
  ALKALINE PHOSPHATASE: 274 u/L
  ASPARTATE AMINOTRANSFERASE: 83 u/L
  BLOOD UREA NITROGEN: 13.67 mg/dL
  CARBON DIOXIDE: 34.67 mmol/L
  CHLORIDE: 98.33 MEQ/L
  CHOLESTEROL: 64.67 mg/dL
  CREATINE PHOSPHOKINASE: 318.67 u/L
  CREATININE: 0.12 mg/dL
  GLUCOSE: 137.67 mg/dL
  LACTATE DEHYDROGENASE: 169.67 u/L
  LIPASE: 12.33 u/L
  PHOSPHORUS: 10 mg/dL
  POTASSIUM: 5.77 MEQ/L
  SODIUM: 144.13 MEQ/L
  TOTAL BILIRUBIN: 0.2 mg/dL
  TOTAL PROTEIN: 6.23 G/DL
  URIC ACID: 0.37 mg/dL
